# Laboratory results reported in publication PMC8241160, “Enhanced oral bioavailability and anticancer efficacy of fisetin by encapsulating as inclusion complex with HPβCD in polymeric nanoparticles” (Drug Delivery, 2017).
# What was measured:
# [1] = Pharmacokinetic study after oral administration; format: in vivo; details: 10 mg/kg FST equivalent, C57BL6 mice, plasma
# Protocol: The animal experiments were performed in accordance with the Committee for the Purpose of Control and Supervision of Experiments on Animals (CPCSEA) guidelines after approval from Institutional Animal Ethics Committee (IAEC) of the institution (Approval no. IICT/39/2016). Female C57BL6 mice weighing from 18 to 22 g were kept for overnight fasting before the start of the experiment and allowed free access of water ad libitum.
# C57BL6 mice were divided into two groups containing 27 animals in each. Animals in group I received pure FST (as 1% gum acacia suspension) orally at a dose of 10 mg/kg body weight and the animals in group II received FHIC-PNP (FST equivalent to 10 mg/kg) orally. At predetermined time intervals, blood samples were collected from retro-orbital plexus into centrifuge tube containing EDTA. Samples were centrifuged at 4000 rpm for 15 min and supernatant (plasma) was collected and stored at −80 °C for further analysis by LC/MS.
# Plasma samples were extracted by solvent mixture composed of chloroform and acetonitrile (1:1). The mixture was kept in shaker for 10 min and the supernatant layer was transferred into another Eppendorf tubes. Evaporation of organic solvent was done on ScanVac speed vacuum concentrator and 100 μl of acetonitrile was added and vortexed. A volume of 2 μl aliquots of sample solution were injected into LC–MS/MS for analysis. The linearity of the method was evaluated by analyzing spiked calibration samples using six calibration standards over a calibration range of 0.5–800 ng/ml in mice plasma.
# Analysis was carried out on U-HPLC instrument (Agilent Technologies, Santa Clara, CA) equipped with a quaternary pump, a degasser, a diode array detector, an auto sampler and a column compartment. Mass spectrometric analysis was carried out on an Agilent 6420 triple quadrupole (Agilent Technologies, Santa Clara, CA) equipped with electrospray ionization (ESI) source. The data acquisition was under the control of Mass Hunter software.
# FST and baicalein, an internal standard (IS), were separated on Agilent Eclipse plus C18 (2.1 mm × 50 mm, 1.8 μm) at constant temperature of 40 °C. The initial mobile phase consisted of 10 mM of ammonium formate (pH 3.5) and acetonitrile with gradient elution at a flow rate of 0.4 ml/min. Elution was in a gradient, the acetonitrile was kept constant at 2% in 0.5 min, and then increased to 98% in 1.5 min and maintained at 98% for another 2 min, then decreased to 2% in 3.8 min and maintained for 2.2 min. The total run time of the analysis was 5 min. After each injection, the sample manager was cleaned by a needle wash process with methanol–water (70/30 v/v). The typical operating source condition for MS scan in negative ion ESI mode were optimized as follow: collision energy 33 eV, cell accelerator voltage 7 eV, fragmentor 135, dwell time 200 ms, gas temperature 280 °C, gas flow 10 l/min and nebulizer 50 psi. The MRM modes of ions with m/z 284.8 → 134.8 for FST and m/z 268.8 → 166.8 for IS (baicalein) were utilized for quantitative analysis.
# [2] = Encapsulation efficiency (indirect method); format: physicochemical; details: FST encapsulated in PLGA nanoparticles
# Protocol: The amount of drug loaded in the nanoparticles was determined by indirect method. Nanoparticle dispersion was centrifuged using Centrisart tubes (Sartorius, Bohemia, NY) and supernatant was analyzed for FST content using UV-visible spectrophotometry at 360 nm. The EE was calculated as follows: EE (%) = {(DT – DS)/DT} × 100, where DT=total FST added; DS=FST in the supernatant.
# [3] = tested on: MCF-7 cells; assay: Quantitative apoptosis by flow cytometer (Annexin V-FITC/PI); format: cell-based, human; details: MCF-7, equivalent to 20 μg/ml FST, 24 h
# Protocol: For the quantitative analysis of apoptosis, cells were treated with FST, FHIC or FHIC-PNP (equivalent to 20 μg/ml FST) for 24 h. Cells were trypsinized, centrifuged at 1200 rpm for 5 min, washed three times with ice-cold PBS and were re-suspended in 500 μl of binding buffer. Thereafter, 5 μl of Annexin V-FITC and 10 μl of PI were added and mixed for 15 min in the dark. The stained cells were analyzed using a flow cytometer (FACS Calibur, BD, San Jose, CA). Data analysis was performed using Cell-Quest software (Becton Dickinson, Franklin Lakes, NJ).
# [4] = tested on: MCF-7 human breast adenocarcinoma cells; assay: Cell viability assay (MTT assay); format: cell-based; details: MCF7, MCF-7, 24 h of treatment
# Protocol: The cell viability assay (MTT assay) was performed in MCF-7 human breast adenocarcinoma cells. Cells were seeded at a density of 7 × 10^3 in DMEM medium supplemented with 10% FBS in a 96-well plate and incubated for 24 h at 37 °C in a humidified 5% CO2. The cells were exposed to different concentrations of FST, FHIC and FHIC-PNP for 24 h in order to ascertain the concentration at which 50% of the cells are viable. A volume of 10 μl of MTT solution (5 mg/ml in PBS) was added to each well. The plate was incubated for 4 h and thereafter the contents in the wells were replaced with 100 μl DMSO and again incubated for 10 min. The optical density was measured using a microplate reader (BioTek Instruments, Synergy 4, Winooski, VT) at 570 nm. The cytotoxicity of blank PNP was also studied to determine the toxicity of the nanocarrier system.
# [5] = design: method as in Seguin et al., 2013; details: ref Seguin et al., 2013; cited from earlier work
# [6] = design: method as in Bothiraja et al., 2014; details: ref Bothiraja et al., 2014; cited from earlier work
# [7] = In vitro drug release (dialysis bag method); format: physicochemical; details: 8 h, PBS pH 7.4 with 0.1% v/v Tween 80, 37 °C
# Protocol: Dialysis bag method was used to carry out the in vitro drug release studies. FST or FHIC-PNP dispersion equivalent to 1 mg of FST, was introduced into the dialysis bag (12 000–14 000 molecular weight cut off, Sigma Aldrich, St. Louis, MO) and placed in 100 ml of phosphate buffer saline pH 7.4 (PBS) containing 0.1%v/v Tween 80 as the release media and kept for stirring at 37 °C at 100 rpm. Samples were withdrawn at different time intervals and replaced with equal volume of media to maintain the sink condition. The collected samples were analyzed for amount of FST content by UV-visible spectrophotometry at 360 nm.
# [8] = Apparent solubility of FST and FHIC in aqueous phase; format: physicochemical; details: PBS
# Protocol: For the determination of apparent solubility, native FST and FHIC were added into 10 ml of PBS and stirred in an orbital shaker for 24 h (Madan et al., [2012]). The solutions were centrifuged (10 000 rpm for 15 min), supernatant was collected and filtered through 0.22 μm filter. After appropriate dilution, FST absorbance was measured using UV-visible spectroscopy at 360 nm. The calibration curve was prepared in the range of 1–20 μg/ml. The observed regression equation was Y = 0.054X + 0.058 with r^2=0.997.
smiles,measurement,setting,value
"O=c1c(O)c(-c2ccc(O)c(O)c2)oc2cc(O)ccc12 [FST, 2-(3,4-dihydroxyphenyl)-3,7-dihydroxychromen-4-one]",Cl,[1],2022.59 ± 0.02 mL/h
same,AUC(0-inf),"[1]; female, mouse",100 ± 2.91 ng·h/mL
same,AUC(0-t),"[1]; female, mouse",80.4 ± 3.61 ng·h/mL
same,Cmax,"[1]; female, mouse",69.3 ± 4.16 ng/mL
same,MRT,"[1]; female, mouse",3.82 ± 2.15 h
same,Tmax,"[1]; female, mouse",0.25 ± 1.2 h
same,half-life,"[1]; female, mouse",3.26 ± 0.9 h
same,encapsulation/entrapment efficiency (EE),[2]; listed as native FST,47%
same,encapsulation/entrapment efficiency (EE),[2]; listed as pure FST,47.3%
same,apoptosis induction,[3],21.8%
same,IC50,[4],77.8 ± 2.12 µg/mL
same,oral bioavailability,[5],44.1%
same,aqueous solubility,[6],10.45 µg/mL
same,FST released in vitro,[7],about 93%
same,solubility at 24 h,[8],5.25 µg/mL
